The values that follow are results of earlier work, collected in patent US11434243B2, “Triazoloquinazolinone synthesis” (priority 2017, dated 2022).

In data set [1] the test system is benzodiazepine site of the GABAA receptor complex.
The conditions of data set [2]: qualitative; complicates purification.

`Cc1ccc(-n2nc3c4cc(Cc5ccccc5)ccc4[nH]c(=O)n3c2=O)cc1` [Compound 12, 9-benzyl-2-(4-methylphenyl)-2,6-dihydro[1,2,4]triazolo[4,3-c]quinazoline-3,5-dione]: the “potency relative to diazepam in displacing 3H-Flumazenil” value in data set [1] (fold more potent than diazepam) was 10 times. The “inhibition of the binding of 3H-Flumazenil to the benzodiazepine site of the GABAA receptor complex” value in data set [1] (rat membrane preparations, result in words) is “very potent inhibitor”. In data set [1] (result in words), the “selectivity for the GABAA receptor complex” value was “selective for the GABAA receptor complex”. Further, the solubility result in data set [2] is listed as “low solubility”.
